Test [1] is classed as binding, E. coli 0111:B4. The settings on record: E. coli 0111:B4 LPS; Tables 1-3; read-out: ED50 (half-maximal effective displacement of BC probe from LPS). How it is done:
Polymyxin B (PMB), a peptide antibiotic known to bind and neutralize LPS^47 serves as the positive control and reference compound for every plate, enabling the quantitative assessment of repeatability and reproducibility (CV and Z′ factors) for the assay. Robotic liquid handling is performed on a Precision 2000 automated microplate pipetting system, programmed using the Precision Power software, Bio-Tek Instruments Inc., VT, USA. Stock solutions of LPS (5 mg/ml; E. coli 0111:B4; procured from Sigma) and BC (500 μM) are prepared in Tris buffer (pH 7.4, 50 mM). 1 ml each of the LPS and BC stocks are mixed and diluted in Tris buffer to a final volume of 100 ml, yielding final concentrations of 50 μg/ml of LPS and 5 μM BC. 40 μl of this BC:LPS mixture is added to each well of the plate using the Precision 2000. Fluorescence measurements are made at 25° C. on a Fluoromax-3 with Micromax Microwell 384-well plate reader, using DataMax software, Jobin Yvon Inc., N.J. The BC excitation wavelength is 580 nm, emission spectra are taken at 620 nm with both emission and excitation monochromator bandpasses set at 5 nm.

The test system of test [2] is murine macrophage J774.A1 cells. The test can be described thus: Nitric oxide (NO) inhibition in LPS-stimulated J774.A1 cells (Griess). It counts as cell-based. How it is done:
Murine monocytes (J774.A1 cells) produce measurable quantities of NO on exposure to LPS and provide a model for the rapid assessment of compounds to neutralize LPS activity. […] In all experiments, Polymyxin B (PMB), a decapeptide antibiotic, known to bind and neutralize LPS,^29;47;48 is used as a reference compound.
Nitric oxide production is measured as total nitrite in murine macrophage J774.A1 cells using the Griess reagent system.^53;54 Murine macrophage J774.A1 cells are grown in RPMI-1640 cell-culture medium containing L-glutamine and sodium bicarbonate and supplemented with 10% fetal bovine serum, 1% L-glutamine-penicillin-streptomycin solution, and 200 μg/ml L-arginine at 37° C. in a 5% CO2 atmosphere. Cells are plated at ˜2×10^6/ml in a volume of 40 μl/well, in 384 well, flat-bottomed, cell culture treated microtiter plates until confluency and subsequently stimulated with 100 ng/ml lipopolysaccharide (LPS). Concurrent to LPS stimulation, serially diluted concentrations of test compounds are added to the cell medium and left to incubate overnight for 16 h. Polymyxin B is used as reference compound in each plate. Positive—(LPS stimulation only) and negative-controls (J774.A1 medium only) are included in each experiment. Nitrite concentrations are measured adding 30 μl of supernatant to equal volumes of Griess reagents (50 μl/well; 0.1% NED solution in ddH2O and 1% sulfanilamide, 5% phosphoric acid solution in ddH2O) and incubating for 15 minutes at room temperature in the dark. Absorbance at 535 nm is measured using a Molecular Devices Spectramax M2 multifunction plate reader (Sunnyvale, Calif.). Nitrite concentrations are interpolated from standard curves obtained from serially diluted sodium nitrite standards.

Test [3] relates to TNF-α and IL-6 production in whole human blood. Description: Multiplexed cytokine assay ex vivo in human blood stimulated with LPS. As to conditions: versus polymyxin B. The format is cell-based. The protocol: The activity of a subset of active Lys-spermine compounds is examined for their ability to inhibit TNF-α and IL-6 production in whole human blood, stimulated ex vivo with LPS.
100 μl aliquots of fresh whole blood, anticoagulated with EDTA, obtained by venipuncture from healthy human volunteers with informed consent and as per guidelines approved by the Human Subjects Experimentation Committee, is exposed to an equal volume of 50 ng/ml of E. coli 0111:B4 LPS, with graded concentrations of test compounds diluted in saline for 4 h in a 96-well microtiter plate. The effect of the compounds on modulating cytokine production examined using a FACSArray multiplexed flow-cytometric bead array (CBA) system (Becton-Dickinson-Pharmingen, San Jose, Calif.). The system uses a sandwich ELISA-on-a-bead principle,^55;56 and is comprised of 6 populations of microbeads that are spectrally unique in terms of their intrinsic fluorescence emission intensities (detected in the FL3 channel of a standard flow cytometer). […] After washing the beads, a mixture of optimally paired second antibodies conjugated to phycoerythrin is added which then forms a fluorescent ternary complex with the immobilized cytokine, the intensity (measured in the FL2 channel) of which is proportional to the cytokine concentration on the bead. […] The data are analyzed in the CBA software suite that is integral to the FACSArray system.

For test [4], the system named is NFκB. Description: NFκB inhibition (LPS-induced). It counts as cell-based. The settings on record: in words. An excerpt:
A focused library of alkyl or acyl c-substituted lysine-spermine conjugates is synthesized with even carbon-numbered chains of C14 to C20 lengths. […] Furthermore, the data showhigh activity compounds are those with chain lengths between C16 and C20. […] The exemplary compounds L-Lys-ε-(stearoyl)-N^1-spermine, D-Lys-ε-(stearoyl)-N^1-spermine, L-Lys-ε-(octadecanyl)-N^1-spermine and D-Lys-ε-(octadecanyl)—N1-spermine all show high activity for the prevention of LPS-induced NFκβ cytokine release from stimulated lymphocytes. Furthermore, the exemplary compounds L-Lys-ε-(stearoyl)-N^1-spermine, D-Lys-ε-(stearoyl)-N^1-spermine, L-Lys-ε-(octadecanyl)-N^1-spermine and D-Lys-ε-(octadecanyl)-N^1-spermine all show high activity for the prevention of LPS-induced NO release from stimulated lymphocytes.

pEC50, pIC50: −log10 of the molar value. Like-named read-outs stand apart in the source and are kept apart here.

From patent publication US20060122279A1, “Hydrophobic polyamine amides as potent lipopolysaccharide sequestrants” (priority 2004, published 2006) come the findings set out here.

Turning to `CCCCCCCCCCCCCCCCCC(=O)NCCCCC(N)C(=O)NCCCNCCCCNCCCN` [Compound 8, D-Lys-ε-(stearoyl)-N^1-spermine], the pEC50 in test [1] was 5.06. For the same compound, the pIC50 in test [2] (J774.A1 cells, 100 ng/ml LPS, 16 h, Tables 1-3, read-out: NO IC50) was 5.70; in test [2] (Table 7 focused library, NO inhibition, read-out: NO), 4.99. Further, the “prevention of LPS-induced NO release from J774.A1 macrophages” value in test [2] (in words) is reported as “high activity”. For the same compound, in test [3], the “inhibitory potency on TNF-α and IL-6 production” value is “almost as potent as polymyxin B”. Besides, the “prevention of LPS-induced NFκβ cytokine release from stimulated lymphocytes” value in test [4] is reported as “high activity”.
